78 molecules from patent publication US9822099B2, “Triazole derivatives” (priority 2013, dated 2017) can be followed below.

Structures are written as SMILES. Like-named read-outs stand apart in the source and are kept apart here. Marks after values point to notes of the source that are not given here.

In one series the test system is Septoria tritici. Briefly: Example D: in vivo preventive test on Septoria tritici (leaf spot on wheat). As to conditions: wheat plants, preventive spray, evaluated 24 days after inoculation. As for the experimental part: The young plants of wheat are treated by spraying the active ingredient prepared as described above. Control plants are treated only with an aqueous solution of acetone/Dimethyl sulfoxide/Tween®. After 24 hours, the plants are contaminated by spraying the leaves with an aqueous suspension of Septoria tritici spores.

For another series, the system named is Sphaerotheca fuliginea. The series is described as follows: Example E: in vivo preventive test on Sphaerotheca fuliginea (powdery mildew on cucurbits). The conditions noted are these: gherkin plants, preventive spray, evaluated 15 days after inoculation. As for the experimental part:
The young plants of gherkin are treated by spraying the active ingredient prepared as described above. Control plants are treated only with an aqueous solution of acetone/Dimethyl sulfoxide/Tween®. After 24 hours, the plants are contaminated by spraying the leaves with an aqueous suspension of Sphaerotheca fuliginea spores.

Setting [1] is: method [a]: LC-MS at pH 2.7, 0.1% formic acid in water / acetonitrile gradient.
Where [2] appears, read: method [b]: LC-MS at pH 7.8, 0.001 molar ammonium hydrogen carbonate in water / acetonitrile gradient.

On to `OC(Cc1c(Cl)cncc1Cl)(Cn1cncn1)c1ccc(Cl)nc1` (racemic) [Example I-63], for which, where the note is “pH 2.7”, the LogP – broadly, the decadic logarithm of the partition coefficient of the neutral form, usually between octanol and water – was 1.89^[a].
In the case of `Cc1cc(C(O)(Cc2ccncc2Cl)Cn2cncn2)nn1C` (racemic) [Example I-66], the LogP (pH 2.7) was 0.84^[a]. Besides, the Eff. % with Septoria tritici (500 ppm of active ingredient) stood at 92%; in the series with Sphaerotheca fuliginea (500 ppm of active ingredient), 80%.
For `OC(Cc1ccccc1F)(Cc1cc(Cl)ncc1F)Cn1cncn1` (racemic) [Example I-73] the same measures were 2.34^[a], 100% and 100%.
As for `OC(Cc1cccc(Cl)c1)(Cc1cc(Cl)ncc1F)Cn1cncn1` (racemic) [Example I-74], the LogP (pH 2.7) is 2.69^[a]. Also, the Eff. % in the series with Septoria tritici (500 ppm of active ingredient) and with Sphaerotheca fuliginea (500 ppm of active ingredient) was 100% each time.
Consider `OC(Cc1ccncc1Cl)(Cn1cncn1)C1(c2ccccc2)CC1` (racemic) [Example I-78], for which the LogP (pH 2.7) is 2.23^[a].
As for `OC(Cc1ccnc(Cl)c1F)(Cn1cncn1)c1ccc(Cl)nc1` (racemic) [Example I-86], for the setting “pH 2.7”, the LogP was 1.23^[a]. For the same molecule, the Eff. % with Septoria tritici (500 ppm of active ingredient) is 72%.
Turning to `OC(Cc1cncc(Cl)n1)(Cn1cncn1)C1(Cl)CC1` (centres unmarked) [Example I-9], the LogP (pH 2.7) is 1.72^[a]. The molecule also gave an Eff. % with Sphaerotheca fuliginea (100 ppm of active ingredient) of 94%.
On to `Cc1cnc(CC(O)(Cn2cncn2)C2(Cl)CC2)c(Cl)n1` (centres unmarked) [Example I-10], for which, where the note is “pH 2.7”, the lipophilicity (LogP) was 2.05^[a]. In the series with Sphaerotheca fuliginea (100 ppm of active ingredient), this molecule returned an Eff. % of 75%.
With `OC(Cc1ccccc1F)(Cc1ccncc1F)Cn1cncn1` (centres unmarked) [Example I-20], under “pH 2.7”, the LogP is 1.63^[a].
Consider `OC(Cc1cccc(Cl)c1)(Cc1ccncc1F)Cn1cncn1` (centres unmarked) [Example I-22], for which the LogP (pH 2.7) was 2.00^[a]. In the series with Septoria tritici (100 ppm of active ingredient), this molecule displayed an Eff. % of 88%.
As to `C[Si](C)(C)OC(Cc1cnccn1)(Cn1cncn1)C1(Cl)CC1` (centres unmarked) [Example I-28], the LogP (pH 2.7) was 2.75^[a].
With `OC(Cc1ccnc(Cl)c1)(Cn1cncn1)c1cccnc1Cl` (centres unmarked) [Example I-34], the LogP (pH 2.7) was 1.35^[a]. The same molecule returned an Eff. % with Sphaerotheca fuliginea (100 ppm of active ingredient) of 100%.
For `OC(Cc1ccnc(Cl)c1)(Cc1ccccc1F)Cn1cncn1` (centres unmarked) [Example I-35] the same measures were 2.06^[a] and 78%.
On to `OC(Cc1cccc(Cl)c1)(Cc1ccnc(Cl)c1)Cn1cncn1` (centres unmarked) [Example I-37], for which, where the note is “pH 2.7”, the LogP is 2.42^[a].
Take `OC(Cc1ccnc(Cl)c1)(Cn1cncn1)c1ccc(Cl)nc1` (centres unmarked) [Example I-38]: the LogP (pH 2.7) was 1.38^[a]. In the series on Sphaerotheca fuliginea (100 ppm of active ingredient), this molecule registered an Eff. % of 100%.
For `OC(Cc1cc(Cl)ncc1F)(Cn1cncn1)c1ccc(Cl)nc1` (centres unmarked) [Example I-42] the same measures were 1.60^[a] and 98%.
In the case of `OC(Cc1cc(Cl)ncc1F)(Cn1cncn1)c1cccnc1Cl` (centres unmarked) [Example I-43], the LogP (pH 2.7) is 1.57^[a]. The Eff. % with Sphaerotheca fuliginea (100 ppm of active ingredient) amounted to 100%.
On to `OC(Cc1cc(Cl)ccn1)(Cn1cncn1)C1(Cl)CC1` (centres unmarked) [Example I-47], for which the LogP (pH 2.7) is 2.02^[a].
Same read-out and setting: in the case of `Cc1ccnc(CC(O)(Cn2cncn2)C2(Cl)CC2)c1` (centres unmarked) [Example I-52] it was 0.52^[a].
As for `OC(Cc1cc(Cl)nc2ccccc12)(Cn1cncn1)C1(Cl)CC1` (centres unmarked) [Example I-92], the LogP (pH 2.7) is 2.69^[a].
With `CC1(C(O)(Cc2ccnnc2Cl)Cn2cncn2)CC1` (centres unmarked) [Example I-93], the LogP (pH 2.7) was 1.28^[a].
Still for that read-out and setting: in the case of `OC(Cc1nc(Cl)ccc1Cl)(Cn1cncn1)C1(Cl)CC1` (centres unmarked) [Example I-96] it was 2.73^[a].
Regarding `OC(Cc1ncc(Cl)cc1Cl)(Cn1cncn1)C1(Cl)CC1` (centres unmarked) [Example I-97], the LogP (pH 2.7) is 2.88^[a].
Take `O=C(Cc1ccc2ccccc2n1)C1(Cl)CC1` [Example V-1]: the LogP under setting [1] was 3.39^[a].
The same measure, in the same setting: the result for `O=C(Cc1ncccc1Cl)C1(Cl)CC1` [Example V-2] reads 2.40^[a].
Same read-out and setting: in the case of `O=C(Cc1ccncc1Cl)C1(Cl)CC1` [Example V-4] it was 2.13^[a].
For `O=C(Cc1cc(Cl)nc(Cl)c1)C1(Cl)CC1` [Example V-5], the LogP under setting [1] is 3.25^[a].
Regarding `O=C(Cc1ccc(Cl)nc1)C1(Cl)CC1` [Example V-6], the LogP reads like this: under setting [1], 2.34^[a]; under setting [2], 2.30^[b];.
Turning to `O=C(Cc1ccncc1Cl)C1(F)CC1` [Example V-7], under setting [1], the LogP is 1.76^[a].
Take `CC(C)(F)C(=O)Cc1ccncc1Cl` [Example V-8]: the LogP under setting [1] is 1.97^[a].
Same read-out and setting: in the case of `CC1(C(=O)Cc2cccnc2Cl)CC1` [Example V-9] it was 1.96^[a]; in that of `O=C(Cc1cccnc1Cl)C1(c2ccccc2)CC1` [Example V-10], 3.00^[a].
On the same count and under the same terms, the result for `CC1(C(=O)Cc2ccncc2Cl)CC1` [Example V-11] reads 1.85^[a]; that for `CC1(C(=O)Cc2ccncc2Cl)CCCCC1` [Example V-12], 3.23^[a]; that for `O=C(Cc1cnc2ccccc2c1)C1(Cl)CC1` [Example V-13], 1.60^[a].
Still for that read-out and setting: in the case of `O=C(Cc1cccnc1F)C1(Cl)CC1` [Example V-16] it was 2.07^[a].
Regarding `O=C(Cc1ccc(Cl)nc1Cl)C1(Cl)CC1` [Example V-17], the log partition coefficient (LogP) under setting [1] was 3.19^[a].
On to `Cc1cccc2cc(CC(=O)C3(Cl)CC3)c(Cl)nc12` [Example V-18], for which the LogP under setting [1] was 4.14^[a].
Still for that read-out and setting: in the case of `O=C(Cc1cccnc1)C1(Cl)CC1` [Example V-19] it was 0.23^[a].
Take `O=C(Cc1c(Cl)ccnc1Cl)C1(Cl)CC1` [Example V-20]: the LogP under setting [1] is 2.96^[a].
`O=C(Cc1cc(Cl)cnc1Cl)C1(Cl)CC1` [Example V-21]: the LogP under setting [1] is 3.12^[a].
Take `ClC1(C2(Cc3ccc4ccccc4n3)CO2)CC1` (centres unmarked) [XII-1]: the LogP under setting [1] is 1.74^[a].
In the case of `Clc1ccc(CC2(C3(Cl)CC3)CO2)cn1` (centres unmarked) [XII-2], the LogP runs as follows: under setting [1], 2.84; under setting [2], 2.83.
As for `Clc1cccnc1CC1(C2(Cl)CC2)CO1` (centres unmarked) [XII-4], the LogP under setting [1] was 2.69^[a].
In the case of `Clc1ncccc1CC1(C2(Cl)CC2)CO1` (centres unmarked) [XII-5], under setting [1], the lipophilicity (LogP) was 2.69^[a].
The same measure, in the same setting: the result for `Fc1cnccc1CC1(C2(Cl)CC2)CO1` (centres unmarked) [XII-6] reads 2.13^[a].
`Fc1cnccc1CC1(C2(F)CC2)CO1` (centres unmarked) [XII-7]: the LogP under setting [1] is 1.63^[a].
Regarding `CC(CF)(CF)C1(Cc2ccncc2F)CO1` (centres unmarked) [XII-8], under setting [1], the LogP was 1.79^[a].
For `FC1(C2(Cc3ccnc(Cl)c3)CO2)CC1` (centres unmarked) [XII-9], the LogP under setting [1] is 2.27^[a].
Still for that read-out and setting: the result for `CC(CF)(CF)C1(Cc2ccnc(Cl)c2)CO1` (centres unmarked) [XII-10] reads 2.38^[a].
Regarding `Clc1cc(CC2(C3(Cl)CC3)CO2)ccn1` (centres unmarked) [XII-11], the LogP under setting [1] was 2.80^[a].
`CC(CF)(CF)C1(Cc2cc(Cl)ncc2F)CO1` (centres unmarked) [XII-12]: the LogP under setting [1] was 2.69^[a].
As for `Fc1cnc(Cl)cc1CC1(C2(F)CC2)CO1` (centres unmarked) [XII-13], under setting [1], the LogP was 2.57^[a].
Same read-out and setting: the result for `Fc1cnc(Cl)cc1CC1(C2(Cl)CC2)CO1` (centres unmarked) [XII-14] reads 3.15^[a]; that for `CC(C)(Cl)C1(Cc2ccncc2Cl)CO1` (centres unmarked) [XII-15], 2.57^[a].
As for `Clc1cnccc1CC1(C2(Cl)CCCC2)CO1` (centres unmarked) [XII-16], the LogP under setting [1] is 3.42^[a].
The same measure, in the same setting: the result for `Clc1cnccc1CC1(C2(Cl)CCCCC2)CO1` (centres unmarked) [XII-17] reads 3.80^[a]; that for `CC(CF)(CF)C1(Cc2ccncc2Cl)CO1` (centres unmarked) [XII-18], 2.16^[a].
The same measure, in the same setting: the result for `FC1(C2(Cc3ccncc3Cl)CO2)CC1` (centres unmarked) [XII-19] reads 2.06^[a]; that for `Fc1cc(CC2(C3(Cl)CC3)CO2)c(Cl)cn1` (centres unmarked) [XII-20], 3.41^[a].
Turning to `Fc1cc(CC2(C3(F)CC3)CO2)c(Cl)cn1` (centres unmarked) [XII-21], under setting [1], the LogP is 2.80^[a].
On the same count and under the same terms, the result for `CC(CF)(CF)C1(Cc2cc(F)ncc2Cl)CO1` (centres unmarked) [XII-22] reads 2.84^[a].
The same measure, in the same setting: in the case of `FC1(C2(Cc3cccnc3Cl)CO2)CC1` (centres unmarked) [XII-23] it was 2.18^[a]; in that of `Clc1cc(CC2(C3(Cl)CC3)CO2)cc(Cl)n1` (centres unmarked) [XII-24], 3.80^[a]; in that of `ClC1(C2(Cc3ccncn3)CO2)CC1` (centres unmarked) [XII-25], 1.44^[a].
The same measure, in the same setting: the result for `Fc1c(CC2(C3(Cl)CC3)CO2)ccnc1Cl` (centres unmarked) [XII-26] reads 3.11^[a].
On to `CC(CF)(CF)C1(Cc2ccnc(Cl)c2F)CO1` (centres unmarked) [XII-27], for which the LogP under setting [1] is 2.65^[a].
On the same count and under the same terms, in the case of `Fc1c(CC2(C3(F)CC3)CO2)ccnc1Cl` (centres unmarked) [XII-28] it was 2.53^[a]; in that of `Clc1ccc(CC2(C3(Cl)CC3)CO2)c(Cl)n1` (centres unmarked) [XII-30], 3.71^[a].
Still for that read-out and setting: the result for `Fc1ncccc1CC1(C2(Cl)CC2)CO1` (centres unmarked) [XII-31] reads 2.47^[a]; that for `Clc1cncc(Cl)c1CC1(C2(Cl)CC2)CO1` (centres unmarked) [XII-32], 3.68^[a].
Same read-out and setting: in the case of `CC(CF)(CF)C1(Cc2c(Cl)cncc2Cl)CO1` (centres unmarked) [XII-33] it was 2.89^[a]; in that of `FC1(C2(Cc3c(Cl)cncc3Cl)CO2)CC1` (centres unmarked) [XII-34], 2.93^[a]; in that of `FC(F)(F)c1cnccc1CC1(C2(Cl)CC2)CO1` (centres unmarked) [XII-38], 3.04^[a].
For `Cc1cccc2cc(CC3(C4(Cl)CC4)CO3)c(Cl)nc12` (centres unmarked) [XII-39], the LogP under setting [1] was 4.90^[a].
For `Clc1ccnc(Cl)c1CC1(C2(Cl)CC2)CO1` (centres unmarked) [XII-40], under setting [1], the LogP was 3.53^[a].
Regarding `Clc1cnc(Cl)c(CC2(C3(Cl)CC3)CO2)c1` (centres unmarked) [XII-41], the LogP under setting [1] is 3.87^[a].
Consider `Clc1cc(CC2(C3(Cl)CC3)CO2)c(Cl)cn1` (centres unmarked) [XII-42], for which, under setting [1], the LogP is 3.70^[a].
